Data as given in patent publication US9790209B2, “Kinase inhibitors” (Respivert Limited, priority 2012, dated 2017).
pIC50: −log10 of the molar value. Read-outs that look alike come from different tables or passages of the source.

How the values were obtained:
[1] = target: c-Src (Homo sapiens (Human), UniProt P12931); test: c-Src enzyme inhibition, Z-LYTE FRET; format: biochemical
Method: (§1) The enzyme inhibitory activities of compounds disclosed herein are determined by FRET using synthetic peptides labelled with both donor and acceptor fluorophores (Z-LYTE, Invitrogen Ltd., Paisley, UK).
The inhibitory activities of compounds of the invention against c-Src and Syk enzymes (Invitrogen), are evaluated in a similar fashion to that described hereinabove. The relevant enzyme (3000 ng/mL or 2000 ng/mL respectively, 2.5 μL) is incubated with the test compound (either 4 μg/mL, 0.4 μg/mL, 0.04 μg/mL, or 0.004 μg/mL, 2.5 μL each) for 2 hr at RT. The FRET peptides (8 μM. 2.5 μL), and appropriate ATP solutions (2.5 μL, 800 μM for c-Src, and 60 μM ATP for Syk) are then added to the enzymes/compound mixtures and incubated for 1 hr. Development reagent (protease, 5 μL) is added for 1 hr prior to detection in a fluorescence microplate reader (Varioskan® Flash, ThermoFisher Scientific).
(§2) In all cases, the site-specific protease cleaves non-phosphorylated peptide only and eliminates the FRET signal. Phosphorylation levels of each reaction are calculated using the ratio of coumarin emission (donor) over fluorescein emission (acceptor), for which high ratios indicate high phosphorylation and low ratios indicate low phosphorylation levels. The percentage inhibition of each reaction is calculated relative to non-inhibited control and the 50% inhibitory concentration (IC50 value) is then calculated from the concentration-response curve.

[2] = target: GSK3α (Homo sapiens (Human), UniProt P49840); test: GSK 3α enzyme inhibition (Method 2), Z-LYTE FRET; format: biochemical
Method: as §1
The inhibitory activities of compounds of the invention against the GSK 3α enzyme isoform (Invitrogen), are evaluated by determining the level of activation/phosphorylation of the target peptide. The GSK3-α protein (500 ng/mL, 2.5 μL) is mixed with the test compound (2.5 μL at either 4 μg/mL, 0.4 μg/mL, 0.04 μg/mL, or 0.004 μg/mL) for 2 hr at RT. The FRET peptide (8 μM, 2.5 μL), which is a phosphorylation target for GSK3α, and ATP (40 μM, 2.5 μL) are then added to the enzyme/compound mixture and the resulting mixture incubated for 1 hr. Development reagent (protease, 5 μL) is added for 1 hr prior to detection in a fluorescence microplate reader (Varioskan® Flash, ThermoFisher Scientific).
as §2
This method follows the same steps as Method 1 above, but utilises a shorter period of mixing of the test compound (105 minutes instead of 2 hours) with the GSK3-α protein.

[3] = system: d-U937 cells; test: LPS-induced TNFα/IL-8 release in d-U937 cells; format: cell-based; conditions: Homo sapiens, dU937, LPS-stimulated d-U937 cells
Method: U937 cells, a human monocytic cell line, are differentiated to macrophage-type cells by incubation with phorbol myristate acetate (PMA; 100 ng/mL) for 48 to 72 hr. Cells are pre-incubated with final concentrations of test compound for 2 hr and are then stimulated with 0.1 μg/mL of LPS (from E. Coli: 0111:B4, Sigma) for 4 hr. The supernatant is collected for determination of TNFα and IL-8 concentrations by sandwich ELISA (Duo-set, R&D systems). The inhibition of TNFα production is calculated as a percentage of that achieved by 10 μg/mL of BIRB796 at each concentration of test compound by comparison against vehicle control. The relative 50% effective concentration (REC50) is determined from the resultant concentration-response curve. The inhibition of IL-8 production is calculated at each concentration of test compound by comparison with vehicle control. The 50% inhibitory concentration (IC50) is determined from the resultant concentration-response curve.

[4] = system: PBMCs; test: LPS-induced TNFα/IL-8 release in PBMC cells; format: cell-based; conditions: Homo sapiens, LPS-stimulated PBMCs, IL-8, read-out: IC50 Values for Inhibition of Cytokine Release PBMCs IL-8
Method: Peripheral blood mononuclear cells (PBMCs) from healthy subjects are separated from whole blood using a density gradient (Lymphoprep, Axis-Shield Healthcare). The PBMCs are seeded in 96 well plates and treated with compounds at the desired concentration for 2 hours before addition of 1 ng/mL LPS (Escherichia Coli 0111:B4 from Sigma Aldrich) for 24 hours under normal tissue culture conditions (37° C., 5% CO2). The supernatant is harvested for determination of IL-8 and TNFα concentrations by sandwich ELISA (Duo-set, R&D systems) and read on the fluorescence microplate reader (Varioskan® Flash, ThermoFisher Scientific). The concentration at 50% inhibition (IC50) of IL-8 and TNFα production is calculated from the dose response curve.

[5] = system: PBMCs; test: IL-2 and IFN gamma release in CD3/CD28 stimulated PBMC cells; format: cell-based; conditions: Homo sapiens
Method: PBMCs from healthy subjects are separated from whole blood using a density gradient (Lymphoprep, Axis-Shield Healthcare). Cells are added to a 96 well plate pre-coated with a mixture of CD3/CD38 monoclonal antibodies (0.3 μg/mL eBioscience and 3 μg/mL BD Pharmingen respectively). Compound at the desired concentration is then added to the wells and the plate left for 3 days under normal tissue culture conditions. Supernatants are harvested and IL-2 and IFN gamma release determined by Sandwich ELISA (Duo-set, R&D System). The IC50 is determined from the dose response curve.

[6] = system: HT29 cells; test: IL-1-induced IL-8 release in HT29 cells; format: cell-based; conditions: Homo sapiens, HT-29, IL-1β-stimulated HT29 cells, read-out: IC50 Values for Inhibition of Cytokine Release HT29 cells IL-8
Method: HT29 cells, a human colon adenocarcinoma cell line, are plated in a 96 well plate (24 hrs) and pre-treated with compounds at the desired concentration for 2 hours before addition of 5 ng/mL of IL-1β (Abcam) for 24 hours. Supernatants are harvested for IL-8 quantification by Sandwich ELISA (Duo-set, R&D System). The IC50 is determined from the dose response curve.

[7] = system: TNBS-induced colitis in mice; test: TNBS-induced colitis in mice; format: in vivo; design: Ulcer grade / LP inflammation: scale not given here; conditions: for LP inflammation / Ulcer grade: 2 days; for Activity in in vivo model of colonic inflammation (histopathology analysis) / Inflammatory cell infiltrate in the reticular and lamina propria zones: assay (iv) conducted over 2 days; for Ulcer grade and epithelial repair compared to the vehicle control: dosed orally at 5 mg/kg (Example 2: at 1 and at 5 mg/kg)
Method: On Day 0 of the study TNBS (200 μL) is administered intra-colonically via a plastic catheter followed by BID dosing of the vehicle, reference or test compound for 2 or 4 days. During the study animals are weighed every day and stool observations are made and recorded as a score, based on stool consistency. At the time of sacrifice on Day 2 (or Day 4) the large intestine is removed and the length and weight recorded. Sections of the colon are taken for either MPO analysis to determine neutrophil infiltration or for histopathology involving scoring to determine disease severity.

[8] = IL-8, read-out: IC50 Values for Inhibition of Cytokine Release dU937 cells IL-8
[9] = IFNγ, read-out: IC50 Values for Inhibition of Cytokine Release PBMCs IFNγ
[10] = IL-2, read-out: IC50 Values for Inhibition of Cytokine Release PBMCs IL-2

Sequence of c-Src (P12931 whole entry, looked up): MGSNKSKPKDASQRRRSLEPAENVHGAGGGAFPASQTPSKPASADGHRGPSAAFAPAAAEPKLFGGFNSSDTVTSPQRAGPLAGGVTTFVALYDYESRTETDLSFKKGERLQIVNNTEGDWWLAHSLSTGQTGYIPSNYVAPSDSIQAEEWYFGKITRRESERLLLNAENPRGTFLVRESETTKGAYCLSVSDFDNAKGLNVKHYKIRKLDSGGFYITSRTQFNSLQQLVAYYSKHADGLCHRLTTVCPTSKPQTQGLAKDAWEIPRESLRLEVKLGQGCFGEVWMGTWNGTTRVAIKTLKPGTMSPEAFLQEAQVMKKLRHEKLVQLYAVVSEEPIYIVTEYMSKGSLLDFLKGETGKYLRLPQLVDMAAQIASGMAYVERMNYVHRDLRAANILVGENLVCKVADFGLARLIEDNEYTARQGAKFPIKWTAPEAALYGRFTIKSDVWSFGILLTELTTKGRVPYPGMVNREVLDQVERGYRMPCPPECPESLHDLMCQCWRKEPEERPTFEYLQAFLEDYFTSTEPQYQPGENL
Sequence of GSK3α (P49840 whole entry): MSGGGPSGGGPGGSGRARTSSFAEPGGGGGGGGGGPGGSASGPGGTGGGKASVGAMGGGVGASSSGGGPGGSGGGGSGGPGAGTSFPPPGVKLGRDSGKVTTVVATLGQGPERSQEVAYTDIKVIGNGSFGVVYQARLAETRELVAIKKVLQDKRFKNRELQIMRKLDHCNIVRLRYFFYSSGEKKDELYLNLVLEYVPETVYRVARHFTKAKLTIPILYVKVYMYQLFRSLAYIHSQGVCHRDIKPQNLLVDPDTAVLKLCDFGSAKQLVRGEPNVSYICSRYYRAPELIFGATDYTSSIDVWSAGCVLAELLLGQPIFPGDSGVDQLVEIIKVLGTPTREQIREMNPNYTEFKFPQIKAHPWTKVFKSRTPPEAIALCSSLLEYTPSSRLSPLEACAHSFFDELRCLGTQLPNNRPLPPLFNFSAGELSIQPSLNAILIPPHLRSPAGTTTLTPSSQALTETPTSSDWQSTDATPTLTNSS

| pIC50 [1] | pIC50 [2] | pIC50 [3, 8] | pIC50 ([3]; TNFα (method describes REC50 relative to BIRB796), read-out: IC50 Values for Inhibition of Cytokine Release dU937 cells TNFα) | pIC50 [6] | SMILES | pIC50 [4] | pIC50 [5, 9] | pIC50 [5, 10] | LP inflammation ([7]; Experiment 1, 1 mg/kg oral BID, TNBS + Vehicle 3.9 ± 0.3) | Ulcer grade ([7]; Experiment 1, 1 mg/kg oral BID, TNBS + Vehicle 4.0 ± 0.5) | LP inflammation ([7]; Experiment 1, 5 mg/kg oral BID, TNBS + Vehicle 3.9 ± 0.3) | Ulcer grade ([7]; Experiment 1, 5 mg/kg oral BID, TNBS + Vehicle 4.0 ± 0.5) | Activity in in vivo model of colonic inflammation (histopathology analysis) [7] | Inflammatory cell infiltrate in the reticular and lamina propria zones [7] | Ulcer grade and epithelial repair compared to the vehicle control [7] | Ulcer grade ([7]; Experiment 2, 1 mg/kg oral BID, TNBS + Vehicle 4.4 ± 0.2) | LP inflammation ([7]; Experiment 2, 1 mg/kg oral BID, TNBS + Vehicle 4.5 ± 0.2) | Ulcer grade ([7]; Experiment 2, 5 mg/kg oral BID, TNBS + Vehicle 4.4 ± 0.2) | LP inflammation ([7]; Experiment 2, 5 mg/kg oral BID, TNBS + Vehicle 4.5 ± 0.2) |
| --- | --- | --- | --- | --- | --- | --- | --- | --- | --- | --- | --- | --- | --- | --- | --- | --- | --- | --- | --- |
| 7.62 | < 5.00 | 9.05 | 9.40 | 8.49 | C#CC(C)(C)c1cc(NC(=O)Nc2ccc(Oc3ccnc(Nc4cc(C)c5[nH]ncc5c4)n3)c3ccccc23)n(-c2ccc(C)cc2)n1 [Example 2, 1-(4-((2-((7-Methyl-1H-indazol-5-yl)amino)pyrimidin-4-yl)oxy)naphthalen-1-yl)-3-(3-(2-methylbut-3-yn-2-yl)-1-(p-tolyl)-1H-pyrazol-5-yl)urea] | 8.70 | 8.44 | 7.74 | 2.7 ± 0.4 | 3.4 ± 0.6 | 1.7 ± 0.4 | 2.4 ± 0.6 | significant activity | marked reduction | marked improvements |  |  |  |  |
| 7.80 | 5.19 | 9.30 |  | 8.77 | C#CC(C)(C)c1cc(NC(=O)Nc2ccc(Oc3ccnc(Nc4cc(OC)cc(OCCOCCOCCOC)c4)n3)c3ccccc23)n(-c2ccc(C)cc2)n1 [Example 13, 1-(4-((2-((3-Methoxy-5-(2-(2-(2-methoxyethoxy)ethoxy)ethoxy)phenyl)amino)pyrimidin-4-yl)oxy)naphthalen-1-yl)-3-(3-(2-methylbut-3-yn-2-yl)-1-(p-tolyl)-1H-pyrazol-5-yl)urea] | 8.77 | 8.89 | 7.23 |  |  |  |  | significant activity | marked reduction | marked improvements | 3.0 ± 0.4 | 2.8 ± 0.3 | 2.9 ± 0.5 | 2.3 ± 0.3 |
